# Experimental data from patent US20050234073A1, “Methods of inhibiting inflammation” (priority 2003, published 2005).
# Marks after values point to notes of the source that are not given here.
# What was measured:
# [1] = Hapten-induced (oxazolone) colitis; format: in vivo, mouse
# Protocol: The hapten-induced colitis model using oxazolone (4-ethoxymethylene-2-phenyl-2-oxazolin-5-one) as the hapten was established in WT B6 or MTP^flox/floxMx1Cre mice as previously described. Briefly, 6 week-old female mice were injected intraperitoneally with vehicle or 500 μg pIpC at days 1, 3, 5 and 7 followed by application of 200 μl of 3% oxazolone (Sigma-Aldrich, St. Louis, Mo.) in 100% ethanol on the abdomen at day 8. On day 14, mice were anesthetized with tribromo-ethanol (Sigma-Aldrich) and 150 μl of 1% oxazolone in 50% ethanol administered per rectum via a 3.5F catheter. Wasting was monitored until day 18 at which time the mice were sacrificed and tissue samples collected for histological examination. Colonic tissue specimens for histological assessment of colitis were fixed in 10% buffered formalin phosphate and embedded in paraffin, cut into 5 micron thick sections and stained with hematoxylin-eosin. The stained paraffin sections were evaluated by for the following parameters of colitis on a scale of 0 to 3 according to known methods: hypervascularity, mononuclear cell infiltration, crypt hyperplasia, epithelial injury or ulceration, polymorphonuclear cell infiltration or crypt abscesses.
# The effect of MTPp gene deletion on the clinicopathologic outcome of oxazolone-induced colitis was examined.
# [2] = format: in vivo, mouse
# Protocol: αGalCer was kindly provided by Dr. Michael Brenner (Brigham and Women's Hospital, Boston, Mass.). […] Mice were sacrificed and sera from peripheral blood subjected to […] (ALT) or aminoaspartate transferase (AST) assays. The kinetic quantitative determination of ALT in serum was performed by ALT/SGPT LIQUI-UV (Stanbio Laboratory, Boeme, Tex.) according to the manufacture's instructions. Fresh liver samples were collected for macroscopic and microscopic inspection. For microscopic examination, liver tissues were immediately fixed in 10% buffered formalin phosphate and embedded in paraffin, cut into sections and stained with hematoxylin-eosin. The clinical response to a hepatocyte mediated, CD1d-dependent response in vivo was evaluated (Osman, Y. et al. Eur. J. Immunol. 30, 1919-1928 (2000)). […] The latter was evident from the absence of elevations of transaminases (FIG. 2D, panels c and d), macroscopic liver necrosis (FIG. 2E, panel d) or microscopic evidence of hepatitis (FIG. 2F, panel d) in the MTP^flox/floxMx1Cre mice that received αGalCer with prior pIpC treatment.
# [3] = biological target: recombinant murine CD1d, beta2m associated, purified by baculovirus expression system (mouse) (UniProt P11609); assay: cell-based or functional assay
# Chain of recombinant murine CD1d, beta2m associated, purified by baculovirus expression system (mouse) (P11609 22-305): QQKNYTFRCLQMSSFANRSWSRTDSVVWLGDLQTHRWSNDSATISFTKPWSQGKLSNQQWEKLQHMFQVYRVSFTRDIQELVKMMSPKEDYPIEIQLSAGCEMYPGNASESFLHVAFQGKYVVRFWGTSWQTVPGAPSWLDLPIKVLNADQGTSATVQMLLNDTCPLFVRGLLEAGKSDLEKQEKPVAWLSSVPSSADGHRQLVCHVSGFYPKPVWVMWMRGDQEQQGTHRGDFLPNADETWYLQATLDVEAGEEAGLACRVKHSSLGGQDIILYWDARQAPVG
# [4] = Assessment of plasma lipids and body weight after pIpC treatment; format: in vivo, mouse
# Protocol: Female 6-8 week-old of both MTP^pflox/floxMx1Cre mice and WT B6 mice that had been injected intraperitoneally with either PBS as control or 500 μg polyinosinic-polycytidylic ribonucleic acid (pIpC, Sigma, St. Louis, Mo.) in PBS every other day for a total of four doses were sacrificed one or 10 days after the last pIpC injection at which time sera was obtained from peripheral blood. The serum was subjected to total cholesterol and triglyceride assays at the clinical laboratory of Brigham and Women's Hospital (Boston, Mass.).
# To further substantiate a direct biochemical relationship between CD1d and MTP, the effects on CD1d expression and function was examined in a conditional MTP-deficient mouse model which contains a “floxed” MTPp gene (MTPp^flox/flox) that had been intercrossed with mice expressing Mx1 promoter controlled, Cre-recombinase (Raabe, M. et al. J. Clin. Invest. 103, 1287-1298 (1999); Bjorkegren, J., Beigneux, A., Bergo, M. O., Maher, J. J. & Young, S. G. J. Biol. Chem. 277, 5476-5483 (2002)). The Mx1 promoter is induced by interferon-inducing substances such as polyinosinic-polycytidylic acid (pIpC) (Raabe, M. et al. J. Clin. Invest. 103, 1287-1298 (1999); Bjorkegren, J., Beigneux, A., Bergo, M. O., Maher, J. J. & Young, S. G. J. Biol. Chem. 277, 5476-5483 (2002); Ralf, K., Schwenk, F., Aguet, M. & Rajewsky, K. Science. 269, 1427-1429 (1995)) such that treatment of MTPp^flox/floxMx1Cre mice with pIpC leads to deletion of the MTPp gene (MTPp^Δ/Δ) primarily within the liver, spleen and intestine providing a degree of tissue specificity to the gene deletion. As previously reported, treatment of 6-10 week old MTPp^flox/floxMx1Cre mice (or MTP^flox/floxMx1Cre mice) with pIpC caused progressive hepatic steatosis (1C) and decreases in serum triglyceride and cholesterol levels (Table 5) in association with decreased MTP mRNA levels as defined by RT-PCR (FIG. 1D) and protein levels (FIG. 1E) in liver and colon.
# CD1d = assay: Flow cytometric analysis of CD1d surface expression on splenocytes of pIpC treated mice; format: in vivo, mouse; details: for Mean fluorescence intensity: CD1d; for Mean fluorescence intensity / % CD1d+: splenocytes
# Description: Mouse cells were stained using the following antibodies: FITC-conjugated α-CD1d (1B1, PharMingen); PE-conjugated α-CD11c (HL3, PharMingen); FITC-conjugated α-1-A^d (AMS-32.1, PharMingen); PE-conjugated α-CD69 (H1.2F3, PharMingen); PE-conjugated α-B220 (RA3-6B2, PharMingen). Human cells were stained using: PE-conjugated α-CD83 (550634, PharMingen); FITC-conjugated α-HLA-A,B,C (557348, PharMingen); α-HLA DR,DP,DQ (32381A, PharMingen); α-CD1d (42.1 or 51.1.3); α-mouse IgG+IgM (AMI1708, Biosource, Camarillo, Calif.). Staining was performed in the presence of Via-Probe (PharMingen) and analyzed with a FACSort flow cytometer (Becton Dickinson).
# [5] = C57BL/6J mice, 1 day after treatment
# [6] = C57BL/6J mice, 10 days after treatment
# [7] = MTPflox/floxMx1Cre mice, 1 day after treatment
# [8] = MTPflox/floxMx1Cre mice, 10 days after treatment
compound,measurement,setting,value
"CCOC=C1N=C(c2ccccc2)OC1=O [oxazolone, 4-ethoxymethylene-2-phenyl-2-oxazolin-5-one]",colitis induction,[1]; MTPflox/floxMx1Cre mice without pIpC,severe colitis
"CCCCCCCCCCCCCCCCCCCCCCCCCC(=O)N[C@@H](CO[C@H]1O[C@H](CO)[C@H](O)[C@H](O)[C@H]1O)[C@H](O)[C@H](O)CCCCCCCCCCCCCC [αGalCer, α-galactosylceramide]",hepatitis induction,"[2]; wild-type C57BL/6J and MTPflox/floxMx1Cre mice, without pIpC-induced deletion",induced hepatitis
MTP purified from rat liver (from UniProt D4A1W8 22-896; P04785 20-509),MTP-mediated PE transfer to CD1d,[3],0.4 to 1.6 picomoles
same,fluorescence of NBD-labeled PE transferred to plate-coated CD1d,[3],5 fold
polyinosinic-polycytidylic ribonucleic acid [pIpC],colitis in response to oxazolone,[1]; MTPflox/floxMx1Cre mice pretreated with pIpC,little evidence of colitis
same,colitis,[1]; WT B6 mice exposed to oxazolone with pIpC administration,not ameliorated
same,Serum triglycerides,[4]; [5],88.1 ± 6.6 mg/dL
same,Total S. Cholesterol,[4]; [5],96.2 ± 12.2 mg/dL
same,Serum triglycerides,[4]; [6],110.0 ± 11.2 mg/dL
same,Total S. Cholesterol,[4]; [6],127.0 ± 5.8 mg/dL
same,Serum triglycerides,[4]; [7],52.0 ± 7.5 mg/dL
same,Total S. Cholesterol,[4]; [7],55.1 ± 9.7 mg/dL
same,Serum triglycerides,[4]; [8],43.5 ± 7.3 mg/dL
same,Total S. Cholesterol,[4]; [8],49.2 ± 3.1 mg/dL
same,hepatic inflammation,"[2]; mouse, in vivo",absence of inflammation
same,Mean fluorescence intensity,CD1d; B6 mice,8.0
same,Mean fluorescence intensity,CD1d; MTPmx1 mice,6.2 +/− 0.9*
same,CD1d expression,CD1d; control wild-type mice injected with pIpC,No reduction
same,% CD1d+,CD1d; B6 mice,42.2%
same,% CD1d+,CD1d; MTPmx1 mice,29.9 +/− 4.7* %
